Reference: patent publication EP0960886B1, “Peptide T and related peptides in the treatment of inflammation, including multiple sclerosis” (priority 1992, dated 1993)
Where “and” joins values, the source holds several entries; their conditions need not be identical. Identical values can stand only once. Entries after “also recorded” stand apart in the source; their conditions may differ.

Key:
LPS = test: LPS-induced inflammation in mice (Example 5); type: in vivo, balb/c mice; parameters: key: indicated on a scale of (-) to (+++); indicated on a scale of (-) to (+++); indicated on a scale of (-) to (+++)
Protocol: Normal balb/c mice (female, 12 weeks) were administered LPS (250 µg, E. coli K-235, Sigma cat. no. L-2018) at time zero. One group of mice (50 animals) were then treated at 30 minutes intervals by i.p. injections of bovine serum albumin (BSA) (Sigma cat. no. 6793) dissolved in pyrogen-free, sterile, isotonic water (2.5 mg BSA per animal per injection, each injection containing 100 µl).
The second group of mice (50 animals) were treated at 30 minutes intervals by i.p. injections of Peptide T (Carlbiotech A/S batch 109401) dissolved in pyrogen-free, sterile, isotonic water (2.5 mg Peptide T per animal per injection, each injection 100 µl).
Glucose levels were determined on blood samples after 3 hours. Subjective parameters such as secretion from the eye, diarrhoea and general well being are indicated on a scale of (-) to (+++).

allogeneic PBMC = test: Two way MLR (Example 9); type: cell-based, human; settings: without Peptide T 1365 ± 335
Protocol: A two way MLR was performed using 10^5 allogeneic PBMC (cpm of A = 142 ± 86, B = 148 ± 84) cocultured in 200 µl of media as described in Table III.
Peptide T given on the first day of an MLR will inhibit allogeneic induced proliferation of PBMC (Table IV).

PBMC = test: Mitogen-induced lymphoproliferation (Example 12); type: cell-based, human
Protocol: Concanavalin A (Con A), pokeweed mitogen, (PWM) and phytohaemagglutin-P (PHA-P) were obtained from Sigma Chemical Co. (St. Louis, MO, USA). Peptide T was synthesised by Carlbiotech Ltd (Copenhagen, Denmark) and supplied as the chloride salt at 8.5 mg/ml in 0.9% benzyl alcohol as a preservative and was stored at 4°C. Peptide T was diluted to working solutions in culture medium (RPMI). Dilute solutions of Peptide T were prepared fresh from stock Peptide T for each experiment. ^3H-thymidine (5 Ci/mmol) was obtained from Amersham.
Isolation of PBMC: Whole blood from healthy, adult volunteers was drawn into heparin and peripheral blood mononuclear cells (PBMC) isolated by density gradient centrifugation on HISTOPAQUE™ (Sigma Chemical Co). PBMC were removed from the interface, washed three times in RPMI containing gentamycin (100µg/ml) and resuspended to 1x10^6 PBMC/ml in RPMI containing 10% foetal bovine serum and gentamycin. 10^5 PBMC were cultured in the presence of 100µl of mitogen suspension in 96 well plates. The final concentration of mitogen was: PWM 25µg/ml; PHA 12.5µg/ml and Con A 6.25µg/ml. 10µl of Peptide T working solution (or RPMI as negative control) was added and cell cultures incubated for a total of 5 days in a humid atmosphere, 5% CO2, 37°C. Cultures were then pulsed with ^3H-thymidine (in RPMI) 18-24 hours prior to harvesting. The amount of incorporated ^3H-thymidine was determined using a BECKMAN™ LS8000 liquid scintillation counter and proliferation expressed as either counts per minute (cpm) or as a proliferation index (PI). PI=(cpm of (PBMC+mitogen))/(cpm of (PBMC+media)) [formula]
All experiments were performed in triplicate. Results reported are characteristic of replicated experiments.
Statistical Analyses: Data were analysed by a two sample ANOVA test using 95% confidence limits such that a value of p≤0.05 was considered a significant difference.

[1] = Pharmacokinetics of Peptide T in vivo; settings: following administration in vivo
Jurkat = test: Growth of spontaneously proliferating cell line Jurkat; type: cell-based; settings: p56^lck positive human T cell line
Source text: Molt-4 is a human T lymphoma cell line, p56^lck negative, and Jurkat is a human T cell line, p56^lck positive, that will grow spontaneously in the absence of exogenous stimuli.

K562 target cells = test: Macrophage cytotoxicity assay (two step, K562 target cells); type: cell-based
Protocol: The MO/MAC cytotoxicity assay is a two step assay. After isolation of adherent cells (mainly MO/MAC) from PBMC, MO/MAC are activated by lymphokines (including IFN gamma and LPS. Subsequent to washing which removes activators, ^3H-thymidine labelled K562 target cells were added to activated MO/MAG and incubated for 3 days. The degree of cytotoxicity was proportional to the amount of radioactive label released into the culture supernatant, is shown in the following scheme : [drawing 8]

K562 cells = test: MO/MAC supernatant cytotoxicity against K562 cells; type: cell-based
Protocol: Supernatant (SN) of activated MO/MAC were collected from monolayers of PBMC derived adherent cells that had been exposed to LPS for 23 hours. This SN was tested for cytolytic activity against ^3H-thymidine labelled K562 cells in a 48 hour, 37°C cytotoxicity assay. SN were stored at 4°C overnight or stored frozen at -20°C for longer periods before using.
The ability of MO/MAC culture SN to lyse target K562 cells was determined in the presence of Peptide T. MO/MAC culture SN was used at a final dilution of 1:6 in the culture well.

Neopterin = test: Serum neopterin by RIA in patients with HIV disease; type: in vivo, human; settings: one line per patient with HIV disease
Source text: However, neopterin levels were elevated prior to Peptide T administration whereas serum IL-1 levels were normal.

[2] = patients with AIDS; Phase I (USC) and Phase II (Fenway Clinic); cited from earlier work
gp120 = settings: rat hippocampal membranes; cited from earlier work
[3] = t3hrs, LPS 250 µg, 2.5 mg Peptide T i.p. at 30 minutes intervals

C[C@@H](N)C(=O)N[C@@H](CO)C(=O)N[C@H](C(=O)N[C@H](C(=O)N[C@H](C(=O)N[C@@H](CC(N)=O)C(=O)N[C@@H](Cc1ccc(O)cc1)C(=O)N[C@H](C(N)=O)[C@@H](C)O)[C@@H](C)O)[C@@H](C)O)[C@@H](C)O [Peptide T, D-Ala-Ser-Thr-Thr-Thr-Asn-Tyr-Thr-NH2]
General well being (LPS; t0 (baseline)): -
Secretion from eyes (LPS; t0 (baseline)): -
Diarrhoea (LPS; t0 (baseline), LPS 250 µg at time zero): -
Diarrhoea (LPS; [3]): +
General well being (LPS; [3]): +
Secretion from eyes (LPS; [3]): +
cpm ± SD (allogeneic PBMC; Peptide T 10^-0 mol/l): 764 ± 77 cpm
cpm ± SD (allogeneic PBMC; Peptide T 10^-5 mol/l): 649 ± 263 cpm
cpm ± SD (allogeneic PBMC; Peptide T 10^-7 mol/l): 534 ± 108 cpm
cpm ± SD (allogeneic PBMC; Peptide T 10^-11 mol/l): 681 ± 222 cpm
cpm ± SD (allogeneic PBMC; Peptide T 10^-13 mol/l): 235 ± 4 cpm
cpm ± SD (allogeneic PBMC; Peptide T 10^-15 mol/l): 371 ± 117 cpm
cpm ± SD (allogeneic PBMC; Peptide T 10^-17 mol/l): 672 ± 261 cpm
concentration able to inhibit stimulated PBMC cultures (PBMC; Con A stimulated, as little as): 0.001 pM
cytotoxicity for responding lymphocytes (PBMC; Con A-induced proliferation measured daily): not cytotoxic
proliferation index ± standard deviation (PBMC; Con A, Peptide T 1x10^-9 M added Day 1, no Peptide T 21.0 ± 5.7): 6.2 ± 0.5
proliferation index ± standard deviation (PBMC; Con A, Peptide T 1x10^-9 M added Day 2, no Peptide T 21.0 ± 5.7): 6.0 ± 1.1
proliferation index ± standard deviation (PBMC; Con A, Peptide T 1x10^-9 M added Day 3, no Peptide T 21.0 ± 5.7): 9.9 ± 0.1
proliferation index ± standard deviation (PBMC; Con A, Peptide T 1x10^-9 M added Day 4, no Peptide T 21.0 ± 5.7): 9.5 ± 1.6
concentration able to inhibit stimulated PBMC cultures (PBMC; PHA stimulated): 0.1 pM
proliferation index ± standard deviation (PBMC; PHA, Peptide T 1x10^-9 M added Day 1, no Peptide T 197 ± 3): 148 ± 13
proliferation index ± standard deviation (PBMC; PHA, Peptide T 1x10^-9 M added Day 2, no Peptide T 197 ± 3): 101 ± 7
proliferation index ± standard deviation (PBMC; PHA, Peptide T 1x10^-9 M added Day 3, no Peptide T 197 ± 3): 148 ± 7
proliferation index ± standard deviation (PBMC; PHA, Peptide T 1x10^-9 M added Day 4, no Peptide T 197 ± 3): 131 ± 10
concentration able to inhibit stimulated PBMC cultures (PBMC; PWM stimulated, as little as): 0.001 pM
proliferation index ± standard deviation (PBMC; PWM, Peptide T 1x10^-9 M added Day 1, no Peptide T 4.29 ± 0.25): 3.13 ± 0.21
proliferation index ± standard deviation (PBMC; PWM, Peptide T 1x10^-9 M added Day 2, no Peptide T 4.29 ± 0.25): 3.20 ± 0.20
proliferation index ± standard deviation (PBMC; PWM, Peptide T 1x10^-9 M added Day 3, no Peptide T 4.29 ± 0.25): 2.65 ± 0.17
proliferation index ± standard deviation (PBMC; PWM, Peptide T 1x10^-9 M added Day 4, no Peptide T 4.29 ± 0.25): 3.22 ± 0.28
mitogen induced proliferation of PBMC after exposure and washing (PBMC; exposure to Peptide T for 2 hours, cells washed before mitogen): inhibition of proliferation
Con A-induced lymphocyte proliferation measured daily (PBMC; growth period day 2-4, Peptide T 10^-9M, compared with growth in absence of the drug): paralleled, but at a reduced rate
growth of PBMC in the absence of mitogen (PBMC; no mitogen): negligible effects; also recorded: did not significantly affect
mitogen stimulation of PBMC after pre-incubation (PBMC; pre-incubation with Peptide T for less than 30 minutes): no effect
peak plasma concentrations [1]: 55 nM
growth of Jurkat cell line (Jurkat): did not significantly affect
cytotoxicity of activated MO/MAC (K562 target cells; Peptide T added concurrently with target cells or every day of the culture): able to inhibit
ability of resting MO/MAC to be activated (K562 target cells; Peptide T added concurrently with the activators): did not affect
concentration below which cytotoxicity returned to control levels (K562 cells; Figure 8): below 1x10^-15 M
concentration still able to block MO/MAC SN mediated lysis of K562 (K562 cells; SN at final dilution of 1:6): 0.1 pM
[Neopterin] (Neopterin; Pre-Peptide T (baseline)): 47.3 ± 0.8 nM and 27.8 ± 0.8 nM and 13.15 ± 2.85 nM and 52.0 ± 4.0 nM
[Neopterin] (Neopterin; post-Peptide T): 32.5 ± 3.5 nM and 19.75 ± 0.25 nM and 8.9 ± 0.6 nM and 16.85 ± 0.05 nM
HIV-induced neurocognitive impairment [2]: improvement
concentrations that inhibit the binding of radiolabelled gp120 (gp120): 0.1 nM
